A value given as a limit tells only on which side of the number the result lay.

In the assay the target is hTREM2 (Homo sapiens, UniProt Q9NZC2). The assay is described as follows: Phospho-Syk AlphaScreen/AlphaLISA assay in TREM2 and DAP12 overexpressing HEK293 cells (Example A1). It is filed as cell-based. Also noted: expressed in transfected cells. The settings on record: HEK293 cells; for EC50: read-out: hTREM2 EC50. The procedure, abridged: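 Single-cell-cloned HEK293 stably overexpressing TREM2 and DAP12, plated 20,000 cells/well for 20 h, then exposed to compounds (1% DMSO) 45 min at room temperature. Lysates probed for phospho-Syk by AlphaLISA sandwich (anti-pSyk, biotinylated anti-Syk); signal normalized to percent of control (100 nM anti-TREM2 antibody vs isotype) and fitted by 4-parameter logistic.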
(In Alpha technology, singlet oxygen from a donor bead excites a nearby acceptor bead.)

Chain of hTREM2 (Q9NZC2 19-230): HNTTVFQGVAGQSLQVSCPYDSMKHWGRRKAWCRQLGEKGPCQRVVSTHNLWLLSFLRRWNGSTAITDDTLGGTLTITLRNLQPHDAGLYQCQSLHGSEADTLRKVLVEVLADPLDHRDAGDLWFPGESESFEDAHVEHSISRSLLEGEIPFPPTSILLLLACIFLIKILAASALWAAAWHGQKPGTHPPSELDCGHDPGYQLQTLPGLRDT
Chain of hTREM2 (O43914 22-113 partner): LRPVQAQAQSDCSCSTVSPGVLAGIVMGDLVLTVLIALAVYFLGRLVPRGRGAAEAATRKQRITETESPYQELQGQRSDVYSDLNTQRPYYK

`CCn1c(C)nc2cc(N3CCO[C@H](c4noc(C)n4)C3)nc(-c3ccc(Cl)cc3F)c2c1=O` [Example 147, 5-(4-chloro-2-fluorophenyl)-3-ethyl-2-methyl-7-((2S)-2-(5-methyl-1,2,4-oxadiazol-3-yl)-4-morpholinyl)pyrido[4,3-d]pyrimidin-4(3H)-one]: the Emax result was “++++ (Emax>300)” and the EC50 lay within 0.05 to 0.5 µM.

For `CCn1c(C)nc2cc(N3CCO[C@@H](c4noc(C)n4)C3)nc(-c3ccc(Cl)cc3F)c2c1=O` [Example 148, 5-(4-chloro-2-fluorophenyl)-3-ethyl-2-methyl-7-((2R)-2-(5-methyl-1,2,4-oxadiazol-3-yl)-4-morpholinyl)pyrido[4,3-d]pyrimidin-4(3H)-one], the Emax entry was “++++ (Emax>300)” and the EC50 lay within 3 to 100 µM.

On to `CCn1c(C)nc2cc(N3CCO[C@@H](c4ccnc(C)c4)C3)nc(-c3ccc(Cl)cc3F)c2c1=O` [Example 149, 5-(4-chloro-2-fluorophenyl)-3-ethyl-2-methyl-7-((2S)-2-(2-methyl-4-pyridinyl)-4-morpholinyl)pyrido[4,3-d]pyrimidin-4(3H)-one], for which the Emax result is “+++ (Emax>200 and ≤300)”; the EC50 was under 0.05 µM.

For the molecule `CCn1c(C)nc2cc(N3CCO[C@@H](c4ccnc(C)c4)C3)nc(-c3ccc(F)cc3F)c2c1=O` [Example 150, 5-(2,4-difluorophenyl)-3-ethyl-2-methyl-7-((2S)-2-(2-methyl-4-pyridinyl)-4-morpholinyl)pyrido[4,3-d]pyrimidin-4(3H)-one], the Emax entry is “+++ (Emax>200 and ≤300)”; the EC50 is under 0.05 µM.

Turning to `CCn1c(C)nc2cc(N3CCO[C@@H](c4cnn(C5CC5)c4)C3)nc(-c3ccc(F)cc3F)c2c1=O` [Example 151, 7-((2S)-2-(1-cyclopropyl-1H-pyrazol-4-yl)-4-morpholinyl)-5-(2,4-difluorophenyl)-3-ethyl-2-methylpyrido[4,3-d]pyrimidin-4(3H)-one], the Emax result is “+++ (Emax>200 and ≤300)”; the concentration giving a half-maximal response (EC50) is under 0.05 µM.

As for `CCCn1c(C)nc2cc(N3CCO[C@@H](c4cnn(C)c4)C3)nc(-c3ccc(Cl)cc3F)c2c1=O` [Example 152, 5-(4-chloro-2-fluorophenyl)-2-methyl-7-((2S)-2-(1-methyl-1H-pyrazol-4-yl)-4-morpholinyl)-3-propylpyrido[4,3-d]pyrimidin-4(3H)-one], the Emax result was “+++ (Emax>200 and ≤300)”; the EC50 is under 0.05 µM.

Take `CCCn1c(C)nc2cc(N3CCO[C@@H](c4cnn(C)c4)C3)nc(-c3ncc(Cl)cc3F)c2c1=O` [Example 153, 5-(5-chloro-3-fluoro-2-pyridinyl)-2-methyl-7-((2S)-2-(1-methyl-1H-pyrazol-4-yl)-4-morpholinyl)-3-propylpyrido[4,3-d]pyrimidin-4(3H)-one]: the Emax result is “++++ (Emax>300)” and the EC50 lay within 0.05 to 0.5 µM.

On to `CCCn1c(C)nc2cc(N3CCO[C@H](c4ccnn4C)C3)nc(-c3ccc(Cl)cc3F)c2c1=O` [Example 154, 5-(4-chloro-2-fluorophenyl)-2-methyl-7-((2S)-2-(1-methyl-1H-pyrazol-5-yl)-4-morpholinyl)-3-propylpyrido[4,3-d]pyrimidin-4(3H)-one], for which the Emax result is “++++ (Emax>300)” and the EC50 was in the range of 3 to 100 µM.

`CCCn1c(C)nc2cc(N3CCO[C@@H](c4ccnn4C)C3)nc(-c3ccc(Cl)cc3F)c2c1=O` [Example 155, 5-(4-chloro-2-fluorophenyl)-2-methyl-7-((2R)-2-(1-methyl-1H-pyrazol-5-yl)-4-morpholinyl)-3-propylpyrido[4,3-d]pyrimidin-4(3H)-one]: the Emax result is listed as “++++ (Emax>300)” and the EC50 lay within 0.05 to 0.5 µM.

With `CCCn1c(C)nc2cc(N3CCO[C@@H](C(F)F)C3)nc(-c3ccc(Cl)cc3F)c2c1=O` [Example 156, 5-(4-chloro-2-fluorophenyl)-7-((2R)-2-(difluoromethyl)-4-morpholinyl)-2-methyl-3-propylpyrido[4,3-d]pyrimidin-4(3H)-one], the Emax entry is listed as “++++ (Emax>300)” and the EC50 was 0.5 to 3 µM.

On to `CCCn1c(C)nc2cc(N3CCO[C@@H](c4ccccc4)C3)nc(-c3ccc(Cl)cc3F)c2c1=O` [Example 157, 5-(4-chloro-2-fluorophenyl)-2-methyl-7-((2S)-2-phenyl-4-morpholinyl)-3-propylpyrido[4,3-d]pyrimidin-4(3H)-one], for which the Emax result was “++++ (Emax>300)” and the EC50 is 0.5 to 3 µM.

`Cn1cc([C@H]2CN(c3cc4ncn(C)c(=O)c4c(-c4ccc(Cl)cc4F)n3)CCO2)cn1` [Example 158, 5-(4-chloro-2-fluorophenyl)-3-methyl-7-((2S)-2-(1-methyl-1H-pyrazol-4-yl)-4-morpholinyl)pyrido[4,3-d]pyrimidin-4(3H)-one]: the Emax result is “+++ (Emax>200 and ≤300)”; the EC50 fell in the range of 0.5 to 3 µM.

As to `Cc1nc2cc(N3CCO[C@@H](c4cnn(C)c4)C3)nc(C3CCCCC3)c2c(=O)n1C` [Example 159, 5-cyclohexyl-2,3-dimethyl-7-((2S)-2-(1-methyl-1H-pyrazol-4-yl)-4-morpholinyl)pyrido[4,3-d]pyrimidin-4(3H)-one], the Emax result was “+++ (Emax>200 and ≤300)”; the EC50 was 0.5 to 3 µM.

For `Cc1nc2cc(N3CCO[C@@H](c4cnn(C)c4)C3)nc(C3CCCC3)c2c(=O)n1C` [Example 160, 5-cyclopentyl-2,3-dimethyl-7-((2S)-2-(1-methyl-1H-pyrazol-4-yl)-4-morpholinyl)pyrido[4,3-d]pyrimidin-4(3H)-one], the Emax entry was “+++ (Emax>200 and ≤300)”; the EC50 lay within 0.5 to 3 µM.

Take `Cc1ccc(C2CC(c3cc4nc(C)n(C)c(=O)c4c(-c4ccc(Cl)cc4F)n3)CCO2)cn1` (centres unmarked) [Example 171, 5-(4-chloro-2-fluorophenyl)-2,3-dimethyl-7-(2-(6-methylpyridin-3-yl)tetrahydro-2H-pyran-4-yl)pyrido[4,3-d]pyrimidin-4(3H)-one]: the Emax result was “+++ (Emax>200 and ≤300)”; the EC50 fell in the range of 0.05 to 0.5 µM.

Take `CCCn1c(C)nc2cc(N3CCO[C@@H](C(F)(F)F)C3)nc(-c3ccc(Cl)cc3F)c2c1=O` [Example 179, (R)-5-(4-chloro-2-fluorophenyl)-2-methyl-3-propyl-7-(2-(trifluoromethyl)morpholino)pyrido[4,3-d]pyrimidin-4(3H)-one]: the Emax entry is given as “++++ (Emax>300)” and the EC50 was 0.5 to 3 µM.

Consider `CCCn1c(C)nc2cc(N3CCO[C@H](C(F)(F)F)C3)nc(-c3ccc(Cl)cc3F)c2c1=O` [Example 180, (S)-5-(4-chloro-2-fluorophenyl)-2-methyl-3-propyl-7-(2-(trifluoromethyl)morpholino)pyrido[4,3-d]pyrimidin-4(3H)-one], for which the Emax entry is recorded as “++++ (Emax>300)” and the EC50 fell in the range of 0.5 to 3 µM.

As to `CCCn1c(C)nc2cc(N3Cc4cnn(C)c4C3)nc(-c3ccc(Cl)cc3F)c2c1=O` [Example 181, 5-(4-chloro-2-fluorophenyl)-2-methyl-7-(1-methyl-4,6-dihydropyrrolo[3,4-c]pyrazol-5(1H)-yl)-3-propylpyrido[4,3-d]pyrimidin-4(3H)-one], the Emax result is reported as “++++ (Emax>300)” and the EC50 fell in the range of 3 to 100 µM.

For `CCCn1c(C)nc2cc(N3CCn4ccnc4C3)nc(-c3ccc(Cl)cc3F)c2c1=O` [Example 182, 5-(4-chloro-2-fluorophenyl)-7-(5,6-dihydroimidazo[1,2-a]pyrazin-7(8H)-yl)-2-methyl-3-propylpyrido[4,3-d]pyrimidin-4(3H)-one], the Emax result is “+++ (Emax>200 and ≤300)”; the EC50 is 3 to 100 µM.

As for `CCCn1c(C)nc2cc(N3CCO[C@H](C(F)F)C3)nc(-c3ccc(Cl)cc3F)c2c1=O` [Example 183, (S)-5-(4-chloro-2-fluorophenyl)-7-(2-(difluoromethyl)morpholino)-2-methyl-3-propylpyrido[4,3-d]pyrimidin-4(3H)-one], the Emax result is “+++ (Emax>200 and ≤300)”; the concentration giving a half-maximal response (EC50) was in the range of 0.5 to 3 µM.

With `CCCn1c(C)nc2cc(N3CCO[C@H](c4ccnn4C)C3)nc(-c3ccc(Cl)cc3F)c2c1=O` [Example 184, (S)-5-(4-chloro-2-fluorophenyl)-2-methyl-7-(2-(1-methyl-1H-pyrazol-5-yl)morpholino)-3-propylpyrido[4,3-d]pyrimidin-4(3H)-one], the Emax result was “++++ (Emax>300)” and the EC50 lay in the range of 0.05 to 0.5 µM.

As for `CCCn1c(C)nc2cc(N3CCOC(CF)C3)nc(-c3ccc(Cl)cc3F)c2c1=O` (centres unmarked) [Example 185, 5-(4-chloro-2-fluorophenyl)-7-(2-(fluoromethyl)morpholino)-2-methyl-3-propylpyrido[4,3-d]pyrimidin-4(3H)-one], the Emax entry was “+++ (Emax>200 and ≤300)”; the EC50 lay within 0.5 to 3 µM.

`CCCn1c(C)nc2cc(N3CCO[C@H](c4ccccc4)C3)nc(-c3ccc(Cl)cc3F)c2c1=O` [Example 186, (R)-5-(4-chloro-2-fluorophenyl)-2-methyl-7-(2-phenylmorpholino)-3-propylpyrido[4,3-d]pyrimidin-4(3H)-one]: the Emax result is given as “++++ (Emax>300)” and the EC50 fell in the range of 0.5 to 3 µM.

In the case of `CCCn1c(C)nc2cc(N3CCO[C@H](CC)C3)nc(-c3ccc(Cl)cc3F)c2c1=O` [Example 187, (R)-5-(4-chloro-2-fluorophenyl)-7-(2-ethylmorpholino)-2-methyl-3-propylpyrido[4,3-d]pyrimidin-4(3H)-one], the Emax result is on record as “++++ (Emax>300)” and the EC50 was in the range of 0.5 to 3 µM.

Regarding `Cc1nc2cc(N3CCO[C@@H](C4CC4)C3)nc(-c3ccc(Cl)cc3F)c2c(=O)n1C` [Example 188, (S)-5-(4-chloro-2-fluorophenyl)-7-(2-cyclopropylmorpholino)-2,3-dimethylpyrido[4,3-d]pyrimidin-4(3H)-one], the Emax result is “++++ (Emax>300)” and the EC50 lay in the range of 0.5 to 3 µM.

The term EC50 denotes the concentration giving half of the maximal effect.

These data come from patent US20250388574A1, “HETEROCYCLIC COMPOUNDS AS TRIGGERING RECEPTOR EXPRESSED ON MYELOID CELLS 2 AGONISTS AND METHODS OF USE” (AMGEN INC., priority 2020, published 2025).
